Assay results as given in patent US20240025906A1 (NEURON23, INC., priority 2022, published 2024).
Like-named read-outs stand apart in the source and are kept apart here.

Experiments:
TYK2 JH2 = target: T1, TYK2 JH2 (Homo sapiens, UniProt P29597); assay: TYK2 JH2 binding assay (KINOMEscan KdELECT competitive binding); conditions: TYK2 JH2 domain
T1 construct: purchased DiscoverX (KINOMEscan KdELECT service); host or cells: E. coli BL21-derived (T7 phage display) or HEK-293
In short: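 Beads carrying a biotinylated ligand were mixed with tagged JH2 kinase and compound (11 points, 3-fold steps, 0.9% DMSO) and shaken 1 h at room temperature. After washing, kinase was released with 0.5 μM untagged ligand over 30 min and measured by qPCR to derive Kd.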

[1] = system: JAK1/TYK2 pSTAT5 (Tyr694/699) in THP-1 cell line; assay: IFNa-stimulated JAK1/TYK2 pSTAT5 (Tyr694/699) inhibition cellular assay, AlphaLISA; type: cell-based; conditions: Homo sapiens, THP-1 cells, AlphaLISA (Assay B)
In short: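 pSTAT5 (Tyr694/699) in lysates quantified by AlphaLISA (615 nm) after 30 min IFNa stimulation (100 ng/mL stock) of THP-1 cells. The cells, 2e4 per well in HBSS, had first been exposed 1 h at 37° C. to eight 6-fold compound dilutions, 10000 down to 0.04 nM final. IC50 fitted by 4PL regression, bottom 0, Hill slope −1.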

[2] = KINOMEscan KdELECT (Assay A), read-out: Biochemical TYK2_JH2_Kd
[3] = IFNa-stimulated, read-out: Cellular THP1_IFNa-pSTATS_IC50
[4] = KINOMEscan KdELECT (Assay A), read-out: Biochemical TYK2_DiscoverX_JH2_BND_Kd
[5] = IFNa-stimulated pSTAT5 (Tyr694/699), read-out: Cellular_THP1_IFNa-pSTATS_TYK2
[6] = DiscoverX KINOMEscan KdELECT (Assay A), read-out: Biochemical TYK2_DiscoverX_JH2_BND_Kd
[7] = IFNa-stimulated, read-out: Cellular_THP1_IFNa-pSTATS_TYK2

T1 sequence (P29597 589-875 limits assumed): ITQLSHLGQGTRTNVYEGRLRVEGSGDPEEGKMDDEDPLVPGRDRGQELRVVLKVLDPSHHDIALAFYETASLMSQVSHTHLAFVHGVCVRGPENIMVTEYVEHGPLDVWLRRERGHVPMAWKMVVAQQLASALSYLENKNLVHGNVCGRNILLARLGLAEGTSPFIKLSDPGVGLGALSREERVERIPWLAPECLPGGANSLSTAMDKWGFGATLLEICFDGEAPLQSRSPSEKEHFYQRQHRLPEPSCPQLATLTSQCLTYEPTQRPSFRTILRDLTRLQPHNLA

SMILES	Kd (TYK2 JH2; [4]) [nM]	Kd (TYK2 JH2; [6]) [nM]	IC50 [1, 7] [nM]	other results
CNc1ncc(-c2cn[nH]c2)c2cc(NC(=O)C3CC3)ncc12 [Example 24, N-(8-(methylamino)-5-(1H-pyrazol-4-yl)-2,7-naphthyridin-3-yl)cyclopropanecarboxamide]	–	–	–	Kd (TYK2 JH2; [2]): ≤ 100 nM; IC50 [1, 3]: > 500 nM
CNc1ncc(-c2nc3cc(N(C)C(C)=O)ccc3o2)c2cc(Nc3cccc(OC)n3)ncc12 [Example 1086, N-[2-[6-[(6-methoxy-2-pyridyl)amino]-1-(methylamino)-2,7-naphthyridin-4-yl]-1,3-benzoxazol-5-yl]-N-methyl-acetamide]	≤ 100	–	–	IC50 [1, 5]: ≤ 500 nM
CNc1ncc(C#Cc2ccc3nc4n(c3c2)CCC(F)=C4)c2cc(NC(=O)C3CC3)ncc12 [Example 809, N-(5-((3-fluoro-1,2-dihydrobenzo[4,5]imidazo[1,2-a]pyridin-8-yl)ethynyl)-8-(methylamino)-2,7-naphthyridin-3-yl)cyclopropanecarboxamide]	≤ 100	–	≤ 500	–
CNc1ncc(C#Cc2ccc(C#N)cn2)c2cc(NC(=O)C3CC3)ncc12 [Example 661, N-(5-((5-cyanopyridin-2-yl)ethynyl)-8-(methylamino)-2,7-naphthyridin-3-yl)cyclopropanecarboxamide]	≤ 100	–	≤ 500	–
CNc1ncc(/C=C/c2ccc(N3CCO[C@@H](C)C3)cc2)c2cc(NC(=O)C3CC3)ncc12 [Example 787, (S,E)-N-(8-(methylamino)-5-(4-(2-methylmorpholino)styryl)-2,7-naphthyridin-3-yl)cyclopropanecarboxamide]	≤ 100	–	≤ 500	–
CCNc1ncc(-c2nc3ccc(N4CC5CN(C)CC(C4)O5)cn3n2)c2cc(NC(=O)C3CC3)ncc12 [Example 581, N-(8-(ethylamino)-5-(6-(7-methyl-9-oxa-3,7-diazabicyclo[3.3.1]nonan-3-yl)-[1,2,4]triazolo[1,5-a]pyridin-2-yl)-2,7-naphthyridin-3-yl)cyclopropanecarboxamide]	–	≤ 100	≤ 500	–
CNc1ncc(-c2nc3cc(OC4CCOCC4)ccc3o2)c2cc(NC(=O)C3CC3)ncc12 [Example 253, N-(8-(methylamino)-5-(5-((tetrahydro-2H-pyran-4-yl)oxy)benzo[d]oxazol-2-yl)-2,7-naphthyridin-3-yl)cyclopropanecarboxamide]	–	≤ 100	≤ 500	–
CNc1ncc(C#Cc2ccc(OCC3CCO3)cc2)c2cc(NC(=O)C3CC3)ncc12 (centres unmarked) [Example 702, N-(8-(methylamino)-5-((4-(oxetan-2-ylmethoxy)phenyl)ethynyl)-2,7-naphthyridin-3-yl)cyclopropanecarboxamide]	≤ 100	–	≤ 500	–
CCn1nccc1-c1cnc(NC)c2cnc(NC(=O)C3CC3)cc12 [Example 19, N-(5-(1-ethyl-1H-pyrazol-5-yl)-8-(methylamino)-2,7-naphthyridin-3-yl)cyclopropanecarboxamide]	–	–	–	Kd (TYK2 JH2; [2]): ≤ 100 nM; IC50 [1, 3]: > 500 nM
CNc1ncc(-c2nc3cc(N4CCOC[C@@H]4C)ccc3o2)c2cc(NC(=O)C3CC3)ncc12 [Example 308, (S)-N-(8-(methylamino)-5-(5-(3-methylmorpholino)benzo[d]oxazol-2-yl)-2,7-naphthyridin-3-yl)cyclopropanecarboxamide]	–	≤ 100	≤ 500	–
CNc1ncc(-c2ccc(-c3ccnn3C)cc2)c2cc(NC(=O)C3CC3)ncc12 [Example 173, N-(5-(4-(1-methyl-1H-pyrazol-5-yl)phenyl)-8-(methylamino)-2,7-naphthyridin-3-yl)cyclopropanecarboxamide]	–	–	–	Kd (TYK2 JH2; [2]): ≤ 100 nM; IC50 [1, 3]: ≤ 500 nM
CNc1ncc(-c2nc3cc(C4CN(S(C)(=O)=O)C4)ccc3o2)c2cc(NC(=O)C3CC3)ncc12 [Example 252, N-(8-(methylamino)-5-(5-(1-(methylsulfonyl)azetidin-3-yl)benzo[d]oxazol-2-yl)-2,7-naphthyridin-3-yl)cyclopropanecarboxamide]	–	≤ 100	≤ 500	–
CNc1ncc(C#Cc2ccc(OC3CN(C(C)=O)C3)cc2)c2cc(NC(=O)C3CC3)nnc12 [Example 893, N-(5-((4-((1-acetylazetidin-3-yl)oxy)phenyl)ethynyl)-8-(methylamino)pyrido[3,4-c]pyridazin-3-yl)cyclopropanecarboxamide]	≤ 100	–	≤ 500	–
CCNc1ncc(-c2nc3ccc(N4CCOCC4)cn3n2)c2cc(NC(=O)[C@H]3C[C@H]3C)ncc12 [Example 579, (1S,2R)—N-(8-(ethylamino)-5-(6-morpholino-[1,2,4]triazolo[1,5-a]pyridin-2-yl)-2,7-naphthyridin-3-yl)-2-methylcyclopropane-1-carboxamide]	–	≤ 100	≤ 500	–
CNc1ncc(-c2ccsn2)c2cc(NC(=O)C3CC3)ncc12 [Example 82, N-(5-(isothiazol-3-yl)-8-(methylamino)-2,7-naphthyridin-3-yl)cyclopropanecarboxamide]	–	–	–	Kd (TYK2 JH2; [2]): ≤ 100 nM; IC50 [1, 3]: > 500 nM
CNc1nccc2cc(NC(=O)C3CC3)nnc12 [Example 176, N-(8-(methylamino)pyrido[3,4-c]pyridazin-3-yl)cyclopropanecarboxamide]	–	–	–	Kd (TYK2 JH2; [2]): 100 to 1000 nM; IC50 [1, 3]: > 500 nM
CNc1ncc(-c2nc3cc(N4CCC[C@H](OC)C4)ccc3o2)c2cc(NC(=O)C3CC3)ncc12 [Example 291, (S)-N-(5-(5-(3-methoxypiperidin-1-yl)benzo[d]oxazol-2-y1)-8-(methylamino)-2,7-naphthyridin-3-yl)cyclopropanecarboxamide]	–	≤ 100	≤ 500	–
CNc1ncc(/C=C/c2ccccc2)c2cc(NC(=O)C3CC3)ncc12 [Example 33, (E)-N-(8-(methylamino)-5-styryl-2,7-naphthyridin-3-yl)cyclopropanecarboxamide]	–	–	–	Kd (TYK2 JH2; [2]): ≤ 100 nM; IC50 [1, 3]: ≤ 500 nM

Now from value to molecule, other results behind:

Kd (TYK2 JH2; [4]) [nM]	Kd (TYK2 JH2; [6]) [nM]	IC50 [1, 7] [nM]	SMILES	other results
–	≤ 100	≤ 500	CNc1ncc(-c2nc3ccc(C(C)(F)F)cn3n2)c2cc(NC(=O)C3CC3)ncc12 [Example 493, N-(5-(6-(1,1-difluoroethyl)-[1,2,4]triazolo[1,5-a]pyridin-2-yl)-8-(methylamino)-2,7-naphthyridin-3-yl)cyclopropanecarboxamide]	–
–	≤ 100	≤ 500	CNc1ncc(-c2nc3cc(OCC(F)F)ccc3o2)c2cc(NC(=O)C3CC3)ncc12 [Example 247, N-(5-(5-(2,2-difluoroethoxy)benzo[d]oxazol-2-yl)-8-(methylamino)-2,7-naphthyridin-3-yl)cyclopropanecarboxamide]	–
–	≤ 100	≤ 500	CNc1ncc(-c2nc3cc(OC)c(OC)cc3o2)c2cc(NC(=O)C3CC3)ncc12 [Example 202, N-(5-(5,6-dimethoxybenzo[d]oxazol-2-yl)-8-(methylamino)-2,7-naphthyridin-3-yl)cyclopropanecarboxamide]	–
≤ 100	–	≤ 500	CNc1ncc(-c2nn3c(C)ncc3o2)c2cc(NC(=O)C3CC3)ncc12 [Example 873, N-(8-(methylamino)-5-(5-methylimidazo[5,1-b][1,3,4]oxadiazol-2-yl)-2,7-naphthyridin-3-yl)cyclopropanecarboxamide]	–
≤ 100	–	> 500	CNc1ncc(-c2cn3cccnc3n2)c2cc(NC(=O)C3CC3)ncc12 [Example 841, N-(5-(imidazo[1,2-a]pyrimidin-2-yl)-8-(methylamino)-2,7-naphthyridin-3-yl)cyclopropanecarboxamide]	–
≤ 100	–	≤ 500	CNc1ncc(-c2nc3cc(N4CC(C)(O)C4)ccc3o2)c2cc(NC(=O)C3CC3)ncc12 [Example 927, N-(5-(5-(3-hydroxy-3-methylazetidin-1-yl)benzo[d]oxazol-2-yl)-8-(methylamino)-2,7-naphthyridin-3-yl)cyclopropanecarboxamide]	–
≤ 100	–	–	CNc1ncc(C#Cc2cnn3cccnc23)c2cc(NC(=O)C3CC3)ncc12 [Example 1021, N-(8-(methylamino)-5-(pyrazolo[1,5-a]pyrimidin-3-ylethynyl)-2,7-naphthyridin-3-yl)cyclopropanecarboxamide]	IC50 [1, 5]: ≤ 500 nM
–	≤ 100	≤ 500	CNc1ncc(-c2nc3ncccc3o2)c2cc(NC(=O)C3CC3)ncc12 [Example 358, N-(8-(methylamino)-5-(oxazolo[4,5-b]pyridin-2-yl)-2,7-naphthyridin-3-yl)cyclopropanecarboxamide]	–
≤ 100	–	> 500	CNc1ncc(-c2cc(-c3ccccc3)[nH]n2)c2cc(NC(=O)C3CC3)ncc12 [Example 881, N-(8-(methylamino)-5-(5-phenyl-1H-pyrazol-3-yl)-2,7-naphthyridin-3-yl)cyclopropanecarboxamide]	–
–	≤ 100	≤ 500	CNc1ncc(-c2nc3c(O)cccc3o2)c2cc(NC(=O)C3CC3)ncc12 [Example 215, N-(5-(4-hydroxybenzo[d]oxazol-2-yl)-8-(methylamino)-2,7-naphthyridin-3-yl)cyclopropanecarboxamide]	–
